How the values were obtained:
[1] = target: T1, HER2 WT (Homo sapiens, UniProt P04626); experiment: Enzymatic assay HER2 WT (method a); type: biochemical; details: [HER2 WT]=12.5 nM, [ATP]=25 μM, [Peptide 22]=1 μM
T1 construct: purchased ProQinase, Freiburg, Germany ERBB2 0108-0000-1
How it was run: (§1)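 Initial rates over 0–3600 s, read as substrate-to-product conversion by capillary electrophoresis, were converted to percent inhibition and fitted with a variable-slope curve to give IC50. Conditions: EGFR WT 2 nM with 1 mM ATP; HER2 YVMA 5 nM or HER2 WT 12.5 nM, each with 25 μM ATP. All used 1 μM Peptide 22 in pH 7.5 HEPES/Mn/Mg buffer.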

[2] = target: EGFR (Homo sapiens, UniProt P00533); experiment: EGFR signaling (pEGFR Tyr1068/total EGFR MSD) in A431 cells; type: cell-based; set-up: endogenous in cells; host or cells: A431, N87; details: for EC50: A431 cells, read-out: A431 pEGFR EC50; for Selectivity A431 EC50/BT474 EC50: ratio A431 pEGFR EC50 to BT474 pHER2 EC50; for Selectivity A431 EC50/HEKYVMA EC50: ratio A431 pEGFR EC50 to HEK YVMA pHER2 EC50
How it was run: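 EC50 was fitted with variable Hill slope from MSD pTyr1068/total EGFR ratios, expressed as % DMSO control. A431 cells were starved overnight, then exposed 1.5 h to eight concentrations from 10 to 0.005 μM in 1% FBS before a 10-min 100 ng/mL EGF pulse.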

[3] = target: HER2YVMA (Homo sapiens, UniProt P04626, INS775YVMA); experiment: Enzymatic assay HER2YVMA (method b); type: biochemical; set-up: purchased Viva biotech, Shanghai, China custom purification; details: [HER2YVMA]=5 nM, [ATP]=25 μM, [Peptide 22]=1 μM
How it was run: as §1

[4] = target: T2, EGFR WT (Homo sapiens, UniProt P00533); experiment: Enzymatic assay EGFR WT (method c); type: biochemical; details: [EGFR WT]=2 nM, [ATP]=1 mM, [Peptide 22]=1 μM
T2 construct: purchased Thermo Fisher, Carlsbad, CA ERBB1 PR7295B
How it was run: as §1

Sequence of HER2YVMA (P04626 with tags, fused parts or gaps INS775YVMA): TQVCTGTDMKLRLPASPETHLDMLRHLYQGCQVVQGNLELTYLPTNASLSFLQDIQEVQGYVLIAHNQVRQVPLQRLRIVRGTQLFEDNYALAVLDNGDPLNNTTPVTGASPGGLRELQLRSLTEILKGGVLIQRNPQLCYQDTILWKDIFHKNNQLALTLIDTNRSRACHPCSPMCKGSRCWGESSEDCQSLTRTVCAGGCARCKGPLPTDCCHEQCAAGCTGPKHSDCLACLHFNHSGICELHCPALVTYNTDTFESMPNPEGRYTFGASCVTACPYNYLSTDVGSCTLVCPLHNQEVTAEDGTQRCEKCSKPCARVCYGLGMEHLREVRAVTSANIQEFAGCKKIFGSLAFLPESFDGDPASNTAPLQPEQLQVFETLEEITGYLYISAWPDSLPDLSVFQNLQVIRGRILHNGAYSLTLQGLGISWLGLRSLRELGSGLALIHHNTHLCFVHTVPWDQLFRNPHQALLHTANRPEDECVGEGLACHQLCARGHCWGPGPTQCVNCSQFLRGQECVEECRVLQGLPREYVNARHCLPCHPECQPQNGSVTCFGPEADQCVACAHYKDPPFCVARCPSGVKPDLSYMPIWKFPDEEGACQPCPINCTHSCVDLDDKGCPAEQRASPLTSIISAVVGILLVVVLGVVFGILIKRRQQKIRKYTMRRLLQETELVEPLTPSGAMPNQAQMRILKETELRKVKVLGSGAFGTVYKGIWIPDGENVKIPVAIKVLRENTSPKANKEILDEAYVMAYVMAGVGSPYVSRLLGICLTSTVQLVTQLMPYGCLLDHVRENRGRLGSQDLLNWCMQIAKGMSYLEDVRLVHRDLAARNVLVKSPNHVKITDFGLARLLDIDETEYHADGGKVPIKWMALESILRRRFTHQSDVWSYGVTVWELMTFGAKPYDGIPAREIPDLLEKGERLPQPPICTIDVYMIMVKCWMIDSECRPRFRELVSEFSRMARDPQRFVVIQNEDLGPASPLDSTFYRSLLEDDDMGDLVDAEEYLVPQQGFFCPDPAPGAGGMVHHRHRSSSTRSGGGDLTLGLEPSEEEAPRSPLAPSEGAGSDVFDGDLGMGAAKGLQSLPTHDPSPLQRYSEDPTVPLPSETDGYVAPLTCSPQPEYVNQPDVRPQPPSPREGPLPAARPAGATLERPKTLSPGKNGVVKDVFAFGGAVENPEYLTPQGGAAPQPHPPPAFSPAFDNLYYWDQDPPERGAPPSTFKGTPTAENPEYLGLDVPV
T1 sequence (P04626 23-1255): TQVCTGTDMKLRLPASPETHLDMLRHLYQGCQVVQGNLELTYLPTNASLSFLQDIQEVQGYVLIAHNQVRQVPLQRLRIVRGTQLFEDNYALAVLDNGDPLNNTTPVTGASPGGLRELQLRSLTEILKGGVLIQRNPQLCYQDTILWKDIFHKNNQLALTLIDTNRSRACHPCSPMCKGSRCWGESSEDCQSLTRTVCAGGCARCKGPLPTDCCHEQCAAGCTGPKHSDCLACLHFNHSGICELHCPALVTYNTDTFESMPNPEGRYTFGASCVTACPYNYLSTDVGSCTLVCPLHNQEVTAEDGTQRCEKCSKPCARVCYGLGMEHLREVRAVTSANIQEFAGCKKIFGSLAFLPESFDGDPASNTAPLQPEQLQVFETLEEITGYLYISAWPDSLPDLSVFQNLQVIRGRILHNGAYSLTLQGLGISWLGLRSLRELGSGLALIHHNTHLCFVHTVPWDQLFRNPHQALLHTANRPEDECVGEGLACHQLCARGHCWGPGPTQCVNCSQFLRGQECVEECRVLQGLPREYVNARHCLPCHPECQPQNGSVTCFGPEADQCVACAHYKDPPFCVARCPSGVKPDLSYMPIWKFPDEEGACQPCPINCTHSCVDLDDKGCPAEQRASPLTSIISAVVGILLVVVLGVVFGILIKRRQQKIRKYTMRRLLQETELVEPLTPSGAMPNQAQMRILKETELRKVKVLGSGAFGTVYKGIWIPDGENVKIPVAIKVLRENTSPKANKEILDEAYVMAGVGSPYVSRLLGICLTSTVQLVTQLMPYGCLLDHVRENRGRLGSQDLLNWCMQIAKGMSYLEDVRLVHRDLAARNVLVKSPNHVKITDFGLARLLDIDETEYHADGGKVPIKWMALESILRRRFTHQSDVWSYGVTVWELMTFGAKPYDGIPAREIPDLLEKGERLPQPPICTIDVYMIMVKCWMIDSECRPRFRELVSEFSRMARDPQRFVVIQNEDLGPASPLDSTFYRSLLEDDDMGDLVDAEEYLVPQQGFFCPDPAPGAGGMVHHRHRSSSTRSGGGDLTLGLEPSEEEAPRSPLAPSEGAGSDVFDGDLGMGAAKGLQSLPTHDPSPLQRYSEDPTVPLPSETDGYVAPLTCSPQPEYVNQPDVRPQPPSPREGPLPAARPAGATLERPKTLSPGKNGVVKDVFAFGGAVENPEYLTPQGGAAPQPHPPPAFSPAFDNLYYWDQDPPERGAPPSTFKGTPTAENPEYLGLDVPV
T2 sequence (P00533 25-1210): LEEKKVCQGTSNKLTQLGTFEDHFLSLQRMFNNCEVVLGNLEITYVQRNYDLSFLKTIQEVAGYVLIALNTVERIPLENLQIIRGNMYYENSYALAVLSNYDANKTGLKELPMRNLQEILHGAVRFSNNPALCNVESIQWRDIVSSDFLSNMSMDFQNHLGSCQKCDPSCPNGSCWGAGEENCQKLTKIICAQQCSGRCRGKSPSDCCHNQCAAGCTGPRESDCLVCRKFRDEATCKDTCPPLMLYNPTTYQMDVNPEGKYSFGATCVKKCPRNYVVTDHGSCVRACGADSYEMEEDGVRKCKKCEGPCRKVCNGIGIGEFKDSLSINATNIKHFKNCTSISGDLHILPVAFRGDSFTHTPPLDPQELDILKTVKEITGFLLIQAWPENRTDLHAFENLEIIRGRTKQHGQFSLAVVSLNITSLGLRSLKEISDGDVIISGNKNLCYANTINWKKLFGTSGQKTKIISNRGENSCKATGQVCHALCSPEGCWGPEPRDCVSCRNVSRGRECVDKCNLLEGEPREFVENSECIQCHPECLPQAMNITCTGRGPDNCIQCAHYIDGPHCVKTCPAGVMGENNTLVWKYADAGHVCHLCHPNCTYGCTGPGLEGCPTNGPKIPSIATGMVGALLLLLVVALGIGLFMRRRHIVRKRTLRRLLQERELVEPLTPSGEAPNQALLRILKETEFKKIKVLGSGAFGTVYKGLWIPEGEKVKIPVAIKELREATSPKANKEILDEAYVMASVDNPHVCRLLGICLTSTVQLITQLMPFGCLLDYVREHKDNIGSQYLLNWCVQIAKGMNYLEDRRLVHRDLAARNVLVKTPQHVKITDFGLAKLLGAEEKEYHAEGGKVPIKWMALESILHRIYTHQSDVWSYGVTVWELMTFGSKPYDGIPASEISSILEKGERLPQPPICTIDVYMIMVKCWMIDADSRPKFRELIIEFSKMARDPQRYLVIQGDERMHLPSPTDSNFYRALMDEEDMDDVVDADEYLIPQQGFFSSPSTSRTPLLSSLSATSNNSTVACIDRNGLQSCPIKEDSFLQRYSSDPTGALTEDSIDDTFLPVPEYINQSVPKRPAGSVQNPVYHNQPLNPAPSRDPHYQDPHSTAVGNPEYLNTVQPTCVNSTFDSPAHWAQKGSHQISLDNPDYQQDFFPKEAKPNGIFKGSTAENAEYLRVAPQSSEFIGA
Sequence of EGFR (P00533 25-1210): as above

Row | Compound | IC50 [1] [µM] | EC50 [2] [µM] | Selectivity A431 EC50/BT474 EC50 [2] | Selectivity A431 EC50/HEKYVMA EC50 [2] | IC50 [3] [µM] | IC50 [4] [µM]
1 | Cc1ccc(Oc2ccc(Nc3ncnc4sc5c(c34)CCN(C(=O)/C=C/CN3CC4C(CO)C4C3)C5)cc2C)cn1 (stereo not drawn) [Compound 34] | < 0.1 | 0.1 to 1 | C (C: ≥ 10 and < 20) | E (E: >1 and < 5) | < 0.1 | > 10
2 | Cc1ccc(Oc2ccc(Nc3ncnc4sc5c(c34)CCN(C(=O)/C=C/CN(CCO)CCO)C5)cc2C)cn1 [Compound 37] | < 0.1 | > 10 | A (A: ≥100) | B (B: ≥ 20 and < 100) | < 0.1 | 1 to 10
3 | Cc1ccc(Oc2ccc(Nc3ncnc4sc5c(c34)CCN(C(=O)/C=C/CNC3COC3)C5)cc2C)cn1 [Compound 38] | < 0.1 | 0.1 to 1 | C (C: ≥ 10 and < 20) | D (D: ≥ 5 and < 10) | < 0.1 | > 10
4 | CNC(=O)CNC/C=C/C(=O)N1CCc2c(sc3ncnc(Nc4ccc(Oc5ccc(C)nc5)c(C)c4)c23)C1 [Compound 39] | < 0.1 | 1 to 10 | C (C: ≥ 10 and < 20) | D (D: ≥ 5 and < 10) | < 0.1 | > 10
5 | Cc1ccc(Oc2ccc(Nc3ncnc4sc5c(c34)CCN(C(=O)/C=C/CNC3CC3)C5)cc2C)cn1 [Compound 40] | < 0.1 | < 0.1 | B (B: ≥ 20 and < 100) | B (B: ≥ 20 and < 100) | < 0.1 | 1 to 10
6 | Cc1ccc(Oc2ccc(Nc3ncnc4sc5c(c34)CCN(C(=O)/C=C/CN3CCCC3C(N)=O)C5)cc2C)cn1 (stereo not drawn) [Compound 41] | < 0.1 | < 0.1 | B (B: ≥ 20 and < 100) | C (C: ≥ 10 and < 20) | < 0.1 | 1 to 10
7 | Cc1ccc(Oc2ccc(Nc3ncnc4sc5c(c34)CCN(C(=O)/C=C/CN3CCCOCC3)C5)cc2C)cn1 [Compound 42] | < 0.1 | 0.1 to 1 | B (B: ≥ 20 and < 100) | B (B: ≥ 20 and < 100) | < 0.1 | > 10
8 | Cc1ccc(Oc2ccc(Nc3ncnc4sc5c(c34)CCN(C(=O)/C=C/CN3CC(O)CO3)C5)cc2C)cn1 (stereo not drawn) [Compound 43] | 0.1 to 1 | > 10 | B (B: ≥ 20 and < 100) | C (C: ≥ 10 and < 20) | 0.1 to 1 | > 10
9 | Cc1ccc(Oc2ccc(Nc3ncnc4sc5c(c34)CCN(C(=O)/C=C/CN3C4CCC3CC4)C5)cc2C)cn1 [Compound 44] | < 0.1 | 0.1 to 1 | D (D: ≥ 5 and < 10) | E (E: >1 and < 5) | < 0.1 | 1 to 10
10 | Cc1ccc(Oc2ccc(Nc3ncnc4sc5c(c34)CCN(C(=O)/C=C/CNCCS(C)(=O)=O)C5)cc2C)cn1 [Compound 45] | < 0.1 | 0.1 to 1 | C (C: ≥ 10 and < 20) | D (D: ≥ 5 and < 10) | < 0.1 | > 10
11 | CCN1CCN(C/C=C/C(=O)N2CCc3c(sc4ncnc(Nc5ccc(Oc6ccc(C)nc6)c(C)c5)c34)C2)CC1 [Compound 46] | 0.1 to 1 | 1 to 10 | B (B: ≥ 20 and < 100) | C (C: ≥ 10 and < 20) | 0.1 to 1 | > 10
